According to PubChem BioAssay AID192 (DTP/NCI, 2004):
Several values for one entry are separate records, joined by “and”; a condition that tells them apart may be missing. Equal entries are not always repeated. Inconclusive results and toxic doses are left out. Square brackets hold non-standard residues; d marks the D form. Peptide text beside a SMILES is read from it. * marks the point of attachment. ξ: configuration not given here. Cbz = O=C(OCc1ccccc1)*; ξK = NCCCCC(N)C(=O)O

Tested on: BDF1 mice, B16 melanoma ip, median survival T/C
Experiment: NCI In Vivo Anticancer Drug Screen. Data for tumor model B16 Melanoma (intraperitoneal) in B6D2F1 (BDF1) mice
Conditions: endpoint: median survival time, higher = longer survival
In short: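 Values are ratios of treated (T) to vehicle-control (C) measurements of survival or tumor size in tumor-bearing mice.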

[1] = dose: 100.0 mg/kg/injection, schedule: Q01DX009 (ip), vehicle: Klucel (hydroxypropylcellulose) (HPC)
[2] = dose: 200.0 mg/kg/injection, schedule: Q01DX009 (ip), vehicle: Klucel (hydroxypropylcellulose) (HPC)
[3] = dose: 6.25 mg/kg/injection, schedule: Q01DX009 (ip), vehicle: saline with Tween-80
[4] = dose: 12.5 mg/kg/injection, schedule: Q01DX009 (ip), vehicle: saline
[5] = dose: 25.0 mg/kg/injection, schedule: Q01DX009 (ip), vehicle: saline
[6] = dose: 50.0 mg/kg/injection, schedule: Q01DX009 (ip), vehicle: Klucel (hydroxypropylcellulose) (HPC)
[7] = dose: 12.5 mg/kg/injection, schedule: Q01DX009 (ip), vehicle: saline with Tween-80
[8] = dose: 25.0 mg/kg/injection, schedule: Q01DX009 (ip), vehicle: saline with Tween-80

CCCCCCCC(=O)O[C@H]1[C@H]2[C@@H](CC1(C)C)C(=O)[C@]13O[C@H]1C(=O)[C@]1(CO1)[C@]23C
T/C (dose: 0.31 mg/kg/injection, schedule: Q01DX009 (ip), vehicle: Klucel (hydroxypropylcellulose) (HPC)): 98 % of control
T/C (dose: 0.63 mg/kg/injection, schedule: Q01DX009 (ip), vehicle: Klucel (hydroxypropylcellulose) (HPC)): 102 % of control
T/C (dose: 0.63 mg/kg/injection, schedule: Q01DX009 (ip), vehicle: saline with Tween-80): 92 % of control
T/C (dose: 1.25 mg/kg/injection, schedule: Q01DX009 (ip), vehicle: Klucel (hydroxypropylcellulose) (HPC)): 100 % of control
T/C (dose: 1.25 mg/kg/injection, schedule: Q01DX009 (ip), vehicle: saline with Tween-80): 89 % of control
T/C (dose: 2.5 mg/kg/injection, schedule: Q01DX009 (ip), vehicle: Klucel (hydroxypropylcellulose) (HPC)): 98 % of control
T/C (dose: 2.5 mg/kg/injection, schedule: Q01DX009 (ip), vehicle: saline with Tween-80): 92 % of control
T/C (dose: 5.0 mg/kg/injection, schedule: Q01DX009 (ip), vehicle: Klucel (hydroxypropylcellulose) (HPC)): 90 % of control
T/C (dose: 10.0 mg/kg/injection, schedule: Q01DX009 (ip), vehicle: Klucel (hydroxypropylcellulose) (HPC)): 86 % of control

CCCCCCCCCCCCCCCCCC[N+](C)(C)c1nc(Cl)nc(Cl)n1
T/C (dose: 3.13 mg/kg/injection, schedule: Q01DX009 (ip), vehicle: other): 98 % of control
T/C (dose: 6.25 mg/kg/injection, schedule: Q01DX009 (ip), vehicle: other): 100 % of control
T/C (dose: 12.5 mg/kg/injection, schedule: Q01DX009 (ip), vehicle: other): 99 % of control

COC(=O)N1CC=CCN1C(=O)OC
T/C (dose: 100.0 mg/kg/injection, schedule: Q04DX003 (ip), vehicle: saline with Tween-80): 102 % of control
T/C (dose: 200.0 mg/kg/injection, schedule: Q04DX003 (ip), vehicle: saline with Tween-80): 102 % of control
T/C (dose: 400.0 mg/kg/injection, schedule: Q04DX003 (ip), vehicle: saline with Tween-80): 94 % of control

C=CCNC(=S)Nc1cc(Cl)ccc1C
T/C (dose: 50.0 mg/kg/injection, schedule: Q04DX003 (ip), vehicle: Klucel (hydroxypropylcellulose) (HPC)): 103 % of control
T/C (dose: 100.0 mg/kg/injection, schedule: Q04DX003 (ip), vehicle: Klucel (hydroxypropylcellulose) (HPC)): 100 % of control

CC(=O)NC1CC2c3ccccc3C1([N+](=O)[O-])c1ccccc12 (stereo not given)
T/C [1]: 100 % of control
T/C [2]: 94 % of control
T/C (dose: 400.0 mg/kg/injection, schedule: Q01DX009 (ip), vehicle: Klucel (hydroxypropylcellulose) (HPC)): 91 % of control

NCC(=O)NC(CCCCNC(=O)OCc1ccccc1)C(=O)O (stereo not given) (H-Gly-[ξK](Cbz)-OH)
T/C (dose: 3.12 mg/kg/injection, schedule: Q01DX009 (ip), vehicle: saline with Tween-80): 97 % of control
T/C [3]: 101 % of control

CCN(CC)CCNCCN
T/C [4]: 94 % of control
T/C [5]: 97 % of control
T/C (dose: 50.0 mg/kg/injection, schedule: Q01DX009 (ip), vehicle: saline): 94 % of control

N#CC1CCCC[N-]1.[NH-]CC[N-]CC[NH-].[Pt+4] (stereo not given)
T/C (dose: 6.25 mg/kg/injection, schedule: Q01DX009 (ip), vehicle: saline): 113 % of control
T/C [4]: 108 % of control
T/C [5]: 91 % of control

CC(Cc1ccc(O)c(O)c1)C(C)Cc1ccc(O)c(O)c1 (stereo not given)
T/C (dose: 750.0 mg/kg/injection, schedule: Q01DX009 (oral), vehicle: saline): 100 % of control
T/C (dose: 1500.0 mg/kg/injection, schedule: Q01DX009 (oral), vehicle: saline): 97 % of control

O=C(NNCc1ccccc1)c1ccccn1
T/C (dose: 6.25 mg/kg/injection, schedule: Q01DX009 (ip), vehicle: Klucel (hydroxypropylcellulose) (HPC)): 90 % of control
T/C (dose: 25.0 mg/kg/injection, schedule: Q01DX009 (ip), vehicle: Klucel (hydroxypropylcellulose) (HPC)): 90 % of control
T/C [6]: 88 % of control and 100 % of control

CCC(C)CC(=O)O (stereo not given)
T/C (dose: 100.0 mg/kg/injection, schedule: Q01DX009 (ip), vehicle: saline): 97 % of control
T/C (dose: 200.0 mg/kg/injection, schedule: Q01DX009 (ip), vehicle: saline): 97 % of control
T/C (dose: 400.0 mg/kg/injection, schedule: Q01DX009 (ip), vehicle: saline): 93 % of control

c1cc[c]([Sn][c]2ccccc2)cc1
T/C (dose: 0.8 mg/kg/injection, schedule: Q04DX003 (ip), vehicle: saline with Tween-80): 97 % of control
T/C (dose: 1.2 mg/kg/injection, schedule: Q04DX003 (ip), vehicle: saline with Tween-80): 97 % of control
T/C (dose: 1.25 mg/kg/injection, schedule: Q01DX009 (ip), vehicle: saline): 95 % of control
T/C (dose: 1.8 mg/kg/injection, schedule: Q04DX003 (ip), vehicle: saline with Tween-80): 100 % of control
T/C (dose: 2.5 mg/kg/injection, schedule: Q01DX009 (ip), vehicle: saline): 111 % of control
T/C (dose: 2.5 mg/kg/injection, schedule: Q04DX003 (ip), vehicle: saline with Tween-80): 121 % of control
T/C (dose: 5.0 mg/kg/injection, schedule: Q01DX009 (ip), vehicle: saline): 109 % of control
T/C (dose: 5.0 mg/kg/injection, schedule: Q04DX003 (ip), vehicle: saline with Tween-80): 115 % of control

C=C1CCN(c2ccc(Br)cc2)C1=O
T/C (dose: 4.0 mg/kg/injection, schedule: Q01DX009 (ip), vehicle: saline + alcohol): 95 % of control
T/C (dose: 8.0 mg/kg/injection, schedule: Q01DX009 (ip), vehicle: saline + alcohol): 101 % of control
T/C (dose: 16.0 mg/kg/injection, schedule: Q01DX009 (ip), vehicle: saline + alcohol): 109 % of control
T/C (dose: 32.0 mg/kg/injection, schedule: Q01DX009 (ip), vehicle: saline + alcohol): 95 % of control
T/C (dose: 64.0 mg/kg/injection, schedule: Q01DX009 (ip), vehicle: saline + alcohol): 101 % of control

Cc1ccc([N+](=O)[O-])c(O)c1[N+](=O)[O-]
T/C [6]: 100 % of control
T/C [2]: 90 % of control

O=C(O)c1ccccc1C(=O)c1ccc(CBr)cc1
T/C (dose: 0.05 mg/kg/injection, schedule: Q01DX009 (ip), vehicle: saline): 100 % of control
T/C (dose: 0.1 mg/kg/injection, schedule: Q01DX009 (ip), vehicle: saline): 97 % of control
T/C (dose: 0.2 mg/kg/injection, schedule: Q01DX009 (ip), vehicle: saline): 100 % of control
T/C (dose: 0.38 mg/kg/injection, schedule: Q04DX003 (ip), vehicle: saline with Tween-80): 91 % of control
T/C (dose: 0.75 mg/kg/injection, schedule: Q04DX003 (ip), vehicle: saline with Tween-80): 95 % of control
T/C (dose: 1.5 mg/kg/injection, schedule: Q01DX009 (ip), vehicle: saline with Tween-80): 87 % of control
T/C (dose: 1.5 mg/kg/injection, schedule: Q04DX003 (ip), vehicle: saline with Tween-80): 100 % of control
T/C (dose: 1.56 mg/kg/injection, schedule: Q04DX003 (ip), vehicle: saline with Tween-80): 100 % of control

c1ccc([I+]c2ccccc2)cc1
T/C (dose: 1.0 mg/kg/injection, schedule: Q01DX009 (ip), vehicle: saline + Tween-80 + alcohol): 103 % of control
T/C (dose: 2.0 mg/kg/injection, schedule: Q01DX009 (ip), vehicle: saline + Tween-80 + alcohol): 97 % of control
T/C (dose: 4.0 mg/kg/injection, schedule: Q01DX009 (ip), vehicle: saline + Tween-80 + alcohol): 108 % of control
T/C (dose: 6.0 mg/kg/injection, schedule: Q01DX009 (sc), vehicle: olive oil, sesame oil, peanut oil): 100 % of control

C1CN1P1(N2CC2)=NP(N2CC2)(N2CC2)=NP(N2CC2)(N2CC2)=N1
T/C (dose: 0.25 mg/kg/injection, schedule: Q02DX009 (ip), vehicle: saline with Tween-80): 87 % of control
T/C (dose: 0.5 mg/kg/injection, schedule: Q01DX009 (ip), vehicle: saline with Tween-80): 108 % of control
T/C (dose: 0.5 mg/kg/injection, schedule: Q02DX009 (ip), vehicle: saline with Tween-80): 101 % of control
T/C (dose: 1.0 mg/kg/injection, schedule: Q01DX009 (ip), vehicle: saline with Tween-80): 124 % of control
T/C (dose: 1.0 mg/kg/injection, schedule: Q02DX009 (ip), vehicle: saline with Tween-80): 87 % of control and 94 % of control
T/C (dose: 2.0 mg/kg/injection, schedule: Q01DX009 (ip), vehicle: saline with Tween-80): 123 % of control
T/C (dose: 2.0 mg/kg/injection, schedule: Q02DX009 (ip), vehicle: saline with Tween-80): 99 % of control and 122 % of control
T/C (dose: 8.0 mg/kg/injection, schedule: Q01DX009 (ip), vehicle: saline with Tween-80): 170 % of control
T/C (dose: 8.0 mg/kg/injection, schedule: Q02DX009 (ip), vehicle: saline with Tween-80): 153 % of control

CC(=O)Nc1ccc2c(c1)C[N+](C)(C1CCCCC1)CO2 (stereo not given)
T/C [7]: 106 % of control
T/C [8]: 113 % of control

c1cc2c(c(NC3=NCCCS3)c1)CCCC2
T/C [6]: 106 % of control
T/C [1]: 96 % of control
T/C [2]: 96 % of control

c1ccc2c(CC3=NCCN3)cccc2c1
T/C [3]: 102 % of control
T/C [7]: 100 % of control
T/C [8]: 102 % of control
